Laboratory results reported in US9573953B2, “Heteroaromatic compounds as PI3 kinase modulators and methods of use” (CALITOR SCIENCES, LLC, priority 2013, dated 2017).

Columns and labels:
PI3K (p110δ/p85α) (h) = molecular target: T1, PI3K (p110δ/p85α) (h) (Homo sapiens, UniProt O00329); assay: PI3K (p110δ/p85α) (h) non-radioactive (HTRF) assay; type: biochemical
T1 construct: purchased Millipore UK Ltd (assays run there as a service)
Experimental: PI3K (p110δ/p85α) (h) [Non-Radioactive Assay]
(§1) PI3K (p110δ/p85α) (h) is incubated in assay buffer containing 10 μM phosphatidylinositol-4,5-bisphosphate and MgATP (concentration as required). The reaction is initiated by the addition of the MgATP mix. After incubation for 30 minutes at room temperature, the reaction is stopped by the addition of stop solution containing EDTA and biotinylated phosphatidylinositol-3,4,5-trisphosphate. Finally, detection buffer is added, which contains europium-labelled anti-GST monoclonal antibody, GST-tagged GRP1 PH domain and streptavidin-allophycocyanin. The plate is then read in time-resolved fluorescence mode and the homogenous time-resolved fluorescence (HTRF) signal is determined according to the formula HTRF=10000×(Em665 nm/Em620 nm).
(§2) The kinase assays described herein were performed at Millipore UK Ltd, Dundee Technology Park, Dundee DD2 1SW, UK.

PI3K p110β/p85α (h) = molecular target: T2, PI3K p110β/p85α (h) (Homo sapiens, UniProt P42338); assay: PI3K p110β/p85α (h) non-radioactive (HTRF) assay; type: biochemical
T2 construct: purchased Millipore UK Ltd (assays run there as a service)
Experimental: PI3K p110β/p85α (h) [Non-Radioactive Assay]
as §1, with “(p110β/p85α)” for “(p110δ/p85α)”
as §2

PI3K (p120γ) (h) = molecular target: T3, PI3K (p120γ) (h) (Homo sapiens, UniProt P48736); assay: PI3K (p120γ) (h) non-radioactive (HTRF) assay; type: biochemical
T3 construct: purchased Millipore UK Ltd (assays run there as a service)
Experimental: PI3K (p120γ) (h) [Non-Radioactive Assay]
as §1, with “(p120γ)” for “(p110δ/p85α)”
as §2

[1] = Pharmacokinetic profiles in monkeys; type: in vivo; conditions: Monkey; for F: iv dose 1 mg/kg, oral dose generally 10 mg/kg; for Cl/F / AUC(0-t) / half-life / Vd: iv dosing, 1 mg/kg; for AUC(0-t) / half-life / Vd: plasma; for Vd: read-out: Vss
Experimental: (§3) The compounds disclosed herein are assessed in pharmacokinetic studies in mice, rats, dogs or monkeys. The compounds are administered as a water solution, 2% HPMC+1% TWEEN®80 in water solution, 5% DMSO+5% solutol in saline, 4% MC suspension or capsule. For the intravenous administration, the animals are generally given at 1 or 2 mg/kg dose. For the oral (p.o.) dosing, mice and rats are generally given 5 or 10 mg/kg dose, and dogs and monkeys are generally given 10 mg/kg dose. The blood samples (0.3 mL) are drawn at 0.25, 0.5, 1.0, 2.0, 3.0, 4.0, 6.0, 8.0, 12 and 24 h time points or 0.083, 0.25, 0.5, 1.0, 2.0, 4.0, 6.0, 8.0 and 24 h time points and centrifuged at 3,000 or 4000 rpm for 2 to 10 min. The plasma solutions are collected and stored at −20° C. or −70° C. until analyzed by LC/MS/MS as described above.

[2] = Pharmacokinetic profiles in dogs; type: in vivo; conditions: Dog; for F: iv dose 1 mg/kg, oral dose generally 10 mg/kg; for clearance / AUC(0-t) / half-life / Vd: iv dosing, 1 mg/kg; for AUC(0-t) / half-life / Vd: plasma; for Vd: read-out: Vss
Experimental: as §3

[3] = Pharmacokinetic profiles in mice; type: in vivo; conditions: Mouse; for F: iv dose 1 mg/kg, oral dose generally 5 or 10 mg/kg; for clearance / AUC(0-t) / half-life / Vd: iv dosing, 1 mg/kg; for AUC(0-t) / half-life / Vd: plasma; for Vd: read-out: Vss
Experimental: as §3

PI3K p110α/p85α (h) = molecular target: T4, PI3K p110α/p85α (h) (Homo sapiens, UniProt P42336); assay: PI3K p110α/p85α (h) non-radioactive (HTRF) assay; type: biochemical
T4 construct: purchased Millipore UK Ltd (assays run there as a service)
Experimental: PI3K p110α/p85α (h) [Non-Radioactive Assay]
as §1, with “p110α/p85α” for “(p110δ/p85α)”, “phosphatidylinositol 4,5-bisphosphate” for “phosphatidylinositol-4,5-bisphosphate”, “ATP solution.” for “MgATP mix.”, “streptavidin allophycocyanin.” for “streptavidin-allophycocyanin.”
as §2

T3 sequence (P48736 whole entry): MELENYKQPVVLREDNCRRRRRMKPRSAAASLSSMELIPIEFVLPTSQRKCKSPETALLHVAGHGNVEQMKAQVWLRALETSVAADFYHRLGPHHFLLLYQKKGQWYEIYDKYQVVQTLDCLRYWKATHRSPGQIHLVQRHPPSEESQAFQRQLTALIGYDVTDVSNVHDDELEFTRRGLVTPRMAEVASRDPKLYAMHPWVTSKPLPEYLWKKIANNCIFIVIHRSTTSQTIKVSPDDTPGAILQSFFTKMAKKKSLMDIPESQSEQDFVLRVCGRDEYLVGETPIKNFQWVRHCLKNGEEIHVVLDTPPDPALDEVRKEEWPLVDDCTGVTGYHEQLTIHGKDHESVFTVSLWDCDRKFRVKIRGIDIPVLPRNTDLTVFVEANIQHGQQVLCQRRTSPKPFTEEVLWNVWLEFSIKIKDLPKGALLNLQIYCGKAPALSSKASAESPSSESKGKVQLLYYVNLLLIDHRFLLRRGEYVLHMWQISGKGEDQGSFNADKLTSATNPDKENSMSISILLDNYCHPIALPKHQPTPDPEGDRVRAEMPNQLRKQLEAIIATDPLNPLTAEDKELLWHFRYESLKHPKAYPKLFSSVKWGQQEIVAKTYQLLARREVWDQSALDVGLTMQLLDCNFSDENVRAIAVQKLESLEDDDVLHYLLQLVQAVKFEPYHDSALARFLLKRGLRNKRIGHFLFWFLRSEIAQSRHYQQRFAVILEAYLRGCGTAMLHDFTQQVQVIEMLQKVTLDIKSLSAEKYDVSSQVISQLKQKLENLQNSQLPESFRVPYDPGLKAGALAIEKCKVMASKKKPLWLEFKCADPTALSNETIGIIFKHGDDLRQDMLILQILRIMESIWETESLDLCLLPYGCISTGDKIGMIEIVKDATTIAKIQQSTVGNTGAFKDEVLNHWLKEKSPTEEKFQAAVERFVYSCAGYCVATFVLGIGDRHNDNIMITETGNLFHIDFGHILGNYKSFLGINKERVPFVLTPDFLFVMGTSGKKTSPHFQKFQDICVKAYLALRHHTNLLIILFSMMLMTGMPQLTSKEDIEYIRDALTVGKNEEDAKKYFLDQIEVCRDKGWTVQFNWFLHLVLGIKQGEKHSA
T1 sequence (O00329 whole entry): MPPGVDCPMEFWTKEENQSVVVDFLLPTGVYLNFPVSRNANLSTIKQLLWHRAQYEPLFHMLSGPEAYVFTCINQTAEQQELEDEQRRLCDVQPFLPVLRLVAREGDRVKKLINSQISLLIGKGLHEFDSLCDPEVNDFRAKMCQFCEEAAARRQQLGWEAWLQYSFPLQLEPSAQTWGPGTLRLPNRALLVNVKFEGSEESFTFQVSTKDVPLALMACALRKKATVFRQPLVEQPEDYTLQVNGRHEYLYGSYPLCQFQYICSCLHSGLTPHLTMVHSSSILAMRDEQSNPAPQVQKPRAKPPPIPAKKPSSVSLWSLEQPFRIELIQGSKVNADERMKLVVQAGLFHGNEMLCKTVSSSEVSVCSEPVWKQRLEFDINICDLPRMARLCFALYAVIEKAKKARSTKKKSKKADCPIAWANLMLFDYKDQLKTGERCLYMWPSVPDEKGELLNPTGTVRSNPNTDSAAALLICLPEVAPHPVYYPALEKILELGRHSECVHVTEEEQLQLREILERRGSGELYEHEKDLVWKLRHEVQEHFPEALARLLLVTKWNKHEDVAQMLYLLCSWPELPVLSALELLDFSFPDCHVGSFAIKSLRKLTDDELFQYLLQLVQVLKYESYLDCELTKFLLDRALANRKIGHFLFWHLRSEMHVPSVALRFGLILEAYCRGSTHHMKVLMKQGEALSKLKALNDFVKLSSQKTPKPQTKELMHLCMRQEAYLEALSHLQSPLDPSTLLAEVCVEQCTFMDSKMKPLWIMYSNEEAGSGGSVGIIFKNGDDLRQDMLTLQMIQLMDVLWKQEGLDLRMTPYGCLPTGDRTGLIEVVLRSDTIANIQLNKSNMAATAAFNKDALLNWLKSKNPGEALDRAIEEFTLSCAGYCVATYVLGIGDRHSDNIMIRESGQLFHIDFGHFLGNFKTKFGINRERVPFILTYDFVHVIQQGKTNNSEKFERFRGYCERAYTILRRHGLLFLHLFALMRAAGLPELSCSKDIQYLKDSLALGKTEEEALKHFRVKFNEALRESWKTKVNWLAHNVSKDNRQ
T1 sequence (P27986 whole entry partner): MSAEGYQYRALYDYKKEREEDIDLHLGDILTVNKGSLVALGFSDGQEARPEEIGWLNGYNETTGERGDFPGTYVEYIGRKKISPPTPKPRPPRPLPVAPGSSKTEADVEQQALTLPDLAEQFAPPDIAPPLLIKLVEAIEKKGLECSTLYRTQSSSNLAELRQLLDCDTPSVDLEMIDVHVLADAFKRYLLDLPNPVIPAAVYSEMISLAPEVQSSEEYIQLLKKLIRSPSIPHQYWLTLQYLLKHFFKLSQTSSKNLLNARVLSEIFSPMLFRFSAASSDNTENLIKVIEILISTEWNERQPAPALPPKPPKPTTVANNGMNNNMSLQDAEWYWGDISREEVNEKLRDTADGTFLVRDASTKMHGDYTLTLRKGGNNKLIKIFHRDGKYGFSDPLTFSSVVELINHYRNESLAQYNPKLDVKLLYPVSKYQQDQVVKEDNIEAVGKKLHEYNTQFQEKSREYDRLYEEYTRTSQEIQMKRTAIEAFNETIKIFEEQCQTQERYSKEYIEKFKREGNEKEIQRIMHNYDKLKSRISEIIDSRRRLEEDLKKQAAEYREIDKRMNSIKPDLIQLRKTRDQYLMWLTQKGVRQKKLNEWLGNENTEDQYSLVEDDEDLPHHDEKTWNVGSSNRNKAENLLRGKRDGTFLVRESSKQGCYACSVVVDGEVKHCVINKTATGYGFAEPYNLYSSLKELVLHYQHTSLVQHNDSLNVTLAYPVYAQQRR
T2 sequence (P42338 whole entry): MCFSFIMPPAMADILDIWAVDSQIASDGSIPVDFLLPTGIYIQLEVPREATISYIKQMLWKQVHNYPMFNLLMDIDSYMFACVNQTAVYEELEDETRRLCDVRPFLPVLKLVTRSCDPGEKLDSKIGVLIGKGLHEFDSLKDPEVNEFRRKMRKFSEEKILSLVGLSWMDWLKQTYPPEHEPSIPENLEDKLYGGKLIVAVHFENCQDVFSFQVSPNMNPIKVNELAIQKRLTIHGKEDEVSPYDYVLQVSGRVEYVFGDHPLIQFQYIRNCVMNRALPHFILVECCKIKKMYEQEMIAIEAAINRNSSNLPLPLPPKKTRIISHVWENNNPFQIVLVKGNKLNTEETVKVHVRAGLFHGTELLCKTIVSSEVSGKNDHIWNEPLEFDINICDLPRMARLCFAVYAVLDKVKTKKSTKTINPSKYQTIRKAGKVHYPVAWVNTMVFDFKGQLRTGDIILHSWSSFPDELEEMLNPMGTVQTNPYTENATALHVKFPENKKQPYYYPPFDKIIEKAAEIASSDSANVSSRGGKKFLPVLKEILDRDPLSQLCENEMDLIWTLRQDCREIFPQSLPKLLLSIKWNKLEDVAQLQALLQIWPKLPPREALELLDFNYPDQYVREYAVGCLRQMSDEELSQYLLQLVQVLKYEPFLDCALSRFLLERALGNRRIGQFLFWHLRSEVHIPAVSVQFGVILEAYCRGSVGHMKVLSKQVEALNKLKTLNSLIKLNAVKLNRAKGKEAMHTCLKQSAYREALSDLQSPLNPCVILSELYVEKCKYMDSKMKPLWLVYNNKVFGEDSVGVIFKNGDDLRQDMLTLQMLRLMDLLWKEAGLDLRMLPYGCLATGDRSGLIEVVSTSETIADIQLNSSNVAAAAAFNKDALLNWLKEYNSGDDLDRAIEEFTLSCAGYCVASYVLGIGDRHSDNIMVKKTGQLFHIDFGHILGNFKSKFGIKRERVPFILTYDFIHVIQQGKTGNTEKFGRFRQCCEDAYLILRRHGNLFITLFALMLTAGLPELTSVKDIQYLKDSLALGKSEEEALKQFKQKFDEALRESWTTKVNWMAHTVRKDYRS
T2 sequence (P27986 whole entry partner): as the sequence (P27986 whole entry partner) above
T4 sequence (P42336 whole entry): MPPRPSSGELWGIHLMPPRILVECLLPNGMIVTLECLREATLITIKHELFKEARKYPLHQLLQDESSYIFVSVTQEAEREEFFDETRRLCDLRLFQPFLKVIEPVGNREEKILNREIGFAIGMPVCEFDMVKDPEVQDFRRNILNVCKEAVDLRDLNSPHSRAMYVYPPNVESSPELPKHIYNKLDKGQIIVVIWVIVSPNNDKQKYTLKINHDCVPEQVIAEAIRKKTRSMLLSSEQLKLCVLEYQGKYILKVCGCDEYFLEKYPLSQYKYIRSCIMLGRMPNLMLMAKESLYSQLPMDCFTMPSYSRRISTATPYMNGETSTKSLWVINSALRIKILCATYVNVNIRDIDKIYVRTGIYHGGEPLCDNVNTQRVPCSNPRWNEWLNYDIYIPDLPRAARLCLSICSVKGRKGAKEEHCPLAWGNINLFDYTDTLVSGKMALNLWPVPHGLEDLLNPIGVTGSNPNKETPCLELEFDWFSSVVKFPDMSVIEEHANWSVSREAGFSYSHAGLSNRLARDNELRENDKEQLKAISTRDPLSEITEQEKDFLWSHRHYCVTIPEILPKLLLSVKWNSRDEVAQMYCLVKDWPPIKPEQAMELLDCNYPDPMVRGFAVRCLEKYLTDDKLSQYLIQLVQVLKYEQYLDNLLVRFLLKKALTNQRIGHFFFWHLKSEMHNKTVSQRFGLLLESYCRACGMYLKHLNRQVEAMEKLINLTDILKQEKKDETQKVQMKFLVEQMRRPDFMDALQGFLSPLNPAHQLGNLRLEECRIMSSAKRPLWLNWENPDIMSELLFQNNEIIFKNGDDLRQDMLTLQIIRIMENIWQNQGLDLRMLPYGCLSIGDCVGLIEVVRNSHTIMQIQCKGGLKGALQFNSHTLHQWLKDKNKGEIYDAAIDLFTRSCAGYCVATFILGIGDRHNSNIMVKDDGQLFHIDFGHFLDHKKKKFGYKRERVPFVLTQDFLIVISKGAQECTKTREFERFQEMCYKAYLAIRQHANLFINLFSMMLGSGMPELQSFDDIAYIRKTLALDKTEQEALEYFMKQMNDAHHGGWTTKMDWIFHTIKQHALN
T4 sequence (P27986 whole entry partner): as the sequence (P27986 whole entry partner) above

Row | IC50 (PI3K (p110δ/p85α) (h)) [nM] | IC50 (PI3K p110β/p85α (h)) [nM] | IC50 (PI3K (p120γ) (h)) [nM] | F [1] [%] | Cl/F [1] [mL/min/kg] | AUC(0-t) [1] [ng·h/mL] | half-life [1] [h] | Vd [1] [L/kg] | F [2] [%] | clearance [2] [mL/min/kg] | AUC(0-t) [2] [ng·h/mL] | half-life [2] [h] | Vd [2] [L/kg] | F [3] [%] | clearance [3] [mL/min/kg] | AUC(0-t) [3] [ng·h/mL] | half-life [3] [h] | Vd [3] [L/kg] | IC50 (PI3K p110α/p85α (h)) [nM] | SMILES
1 | 5 | 45 | 5 | – | – | – | – | – | – | – | – | – | – | – | – | – | – | – | – | COc1ncc(-c2ccn3ncc(C#N)c3n2)cc1NS(=O)(=O)c1ccc(F)cc1F [Ex. 2, N-(5-(3-cyanopyrazolo[1,5-a]pyrimidin-5-yl)-2-methoxypyridin-3-yl)-2,4-difluorobenzenesulfonamide]
2 | 5 | 84 | 6 | – | – | – | – | – | – | – | – | – | – | – | – | – | – | – | – | COc1ncc(-c2ccn3ncc(C#CCO)c3n2)cc1NS(=O)(=O)c1ccc(F)cc1F [Ex. 1, 2,4-difluoro-N-(5-(3-(3-hydroxyprop-1-yn-1-yl)pyrazolo[1,5-a]pyrimidin-5-yl)-2-methoxypyridin-3-yl)benzenesulfonamide]
3 | 1 | 22 | 15 | 24.0 | 3 | 5740 | 4.64 | 0.42 | 108.5 | 1.83 | 9070 | 6.13 | 0.19 | 70.0 | 2.83 | 5810 | 1.11 | 0.18 | 1 | COc1ncc(-c2ccn3ncc(C#CCO)c3c2)cc1NS(=O)(=O)c1ccc(F)cc1F [Ex. 4, 2,4-difluoro-N-(5-(3-(3-hydroxyprop-1-yn-1-yl)pyrazolo[1,5-a]pyridin-5-yl)-2-methoxypyridin-3-yl)benzenesulfonamide]
4 | 2 | 41 | 6 | 59.8 | 2.67 | 5980 | 9.7 | 0.92 | 108.5 | 4.5 | 3670 | 0.67 | 0.23 | 79.3 | 0.33 | 57100 | 5.45 | 0.13 | – | COc1ncc(-c2ccn3ncc(C#N)c3c2)cc1NS(=O)(=O)c1ccc(F)cc1F [Ex. 3, N-(5-(3-cyanopyrazolo[1,5-a]pyridin-5-yl)-2-methoxypyridin-3-yl)-2,4-difluorobenzenesulfonamide]
